PMC12636026 (Journal of the American Chemical Society, 2025)
Entries after “also recorded” stand apart in the source; their conditions may differ. Bridges are numbered along the chain shown (N, C = ends). Roman numbers before positions name the chains, in order.

How the values were obtained:
[1] = tested on: trypsin; test: 12 µM trypsin (bovine pancreas) in 100 mM HEPES buffer pH 7.5; conditions: 37°C, up to 48 h
[2] = clinical agent; ref citation number not given; cited from earlier work
From the text: These findings advance our understanding of ligand suitability in MRI contrast agent design and illustrate the potential of metallo-coiled coils to surpass the performance limits of traditional inorganic complexes. By exploiting the modular natur ...

[3] = Circular dichroism folding (% folded from ellipticity at 222 nm); format: physicochemical; conditions: CD 222 nm, no metal, 10 mM HEPES pH 7.0, 293 K, triplicate
[4] = Native mass spectrometry metalation; format: binding; conditions: 10 μM trimer : 10 μM metal, 50 mM ammonium acetate pH 6.8, room temperature, 60 min
From the text: This preserves noncovalent interactions enabling coiled coil complexes to be detected. […] (C) Representative full Tb(III) emission spectra for each titration point. λex = 280 nm. […] Error bars determined from standard deviation error of three independent repeat experiments. […] page 4: […] Upon successful purification, removal of Tb(III) was confirmed on a small aliquot of cross-linked peptide by fluorescence spectroscopy. Here the absence of enhanced/sensitized Tb(III) emission, at 545 nm, is consistent with complete […] Stock solutions preparation: In all experiments, the concentration of peptide stock […] Once samples were prepared, the concentration of the solutions were checked by UV vis and adjust if necessary. All GdCl3 and TbCl3 stock solutions were freshly […] solutions were also freshly prepared and determined in a similar fashion using EDTA and xylenol orange indicator solution.6 The equivalence of metal added was then adjust to the exact concentration of peptide in the sample. […] in volumetric glassware using MilliQ water. Native mass spectrometry (MS): […] ammonium acetate pH 6.8. The concentrations of the peptides were measured using the […] Metal stock solutions were initially prepared by […] These stock solutions were then […] […] The observed molecular weights were calculated from an average of 3 charge states. […]

[5] = Kinetics of Tb(III) binding and coiled coil folding (CD 222 nm / Tb emission 545 nm); format: physicochemical; conditions: 0.1, 1.0 and 10 μM, 10 mM HEPES pH 7.0, 1.0 equiv TbCl3
[6] = target: T1, trypsin (bovine pancreas) (Bos taurus, UniProt P00760); test: in vitro; format: in vitro ADME; conditions: 100 µM, 12 μM trypsin, 100 mM HEPES pH 7.5, 37 °C, HPLC
T1 construct: from tissue; host or cells: bovine pancreas
T1 sequence (P00760 24-246): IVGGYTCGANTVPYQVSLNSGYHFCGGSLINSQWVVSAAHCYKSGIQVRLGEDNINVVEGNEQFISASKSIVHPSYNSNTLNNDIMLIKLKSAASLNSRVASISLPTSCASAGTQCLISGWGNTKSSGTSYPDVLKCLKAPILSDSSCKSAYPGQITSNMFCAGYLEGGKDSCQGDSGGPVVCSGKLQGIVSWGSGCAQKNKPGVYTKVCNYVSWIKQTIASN
Protocol: (§1) page 8: determined as reported periously10 at the data was fitted to the Hills equation using MatLab.11 Stability Studies: Zinc transmetallation experiments: Emission spectra of Tb(III) were recorded for 1.0 µM […] Zinc chloride (ZnCl₂) was then added to each cuvette to give a final concentration of 125 µM Zn(II), and the fluorescence emission spectra were subsequently collected over time. The Tb(III) emission for each sample was normalized to the integrated intensity of the 545 nm emission peak from the initial spectrum. Phosphate and HEPES: Emission spectra of Tb(III) were recorded for 1.0 µM solutions of […] Phosphate buffer prepared from a mixture of sodium monobasic and tribasic phosphate salts (to give a stock concentration of 100 mM at pH 7.0) […] Fluorescence emission spectra were subsequently collected over time. The Tb(III) emission for each sample was normalized to the integrated intensity of the 545 nm emission peak from the initial spectrum. A control was carried out using the same methodology, this time monitoring the change in Tb emission upon the addition of HEPES buffer instead of phosphate. Protease experiments: A trypsin (bovine pancreas) stock solution was prepared (1.5 mg/mL) by dissolving in 100 mM HEPES at pH 7.5. The peptide stock solution was prepared by dissolving the lyophilized peptide in the same buffer solution, and the concentration determined as reported previously. In the case when the peptide was metalated, samples were left to equilibrate with the metal upon addition for around 60 min. prior to the addition of the trypsin. Samples were left to incubate in a water bath at 37°C. At specific time points, 35 µl of each sample were taken and quenched with 35 µl of 4% TFA solution. […] Individual peaks from the HPLC were collected and then analyzed by ESI mass spectrometry in positive mode. Samples were ionised using nanoelectrospray ionisation (TriVersa NanoMate, Advion Interchim Scientific, […] 8 page 27: Figure S14: […] Figure S14: […] pancreas) and 100 mM HEPES buffered at pH 7.5. […] monitored. 27 (1 picture or pasted object on this page, not shown here) page 28: Figure S15: […] Figure S15: […] pancreas) and 100 mM HEPES buffered at pH 7.5. […] monitored. 28 (1 picture or pasted object on this page, not shown here)

[7] = tested on: T2, trypsin (bovine pancreas); test: in vitro; format: in vitro ADME; conditions: isolated enzyme trypsin, 100 µM, 12 μM trypsin, 100 mM HEPES pH 7.5, 37 °C, HPLC, trimers lacking C-terminal G-NH2 or Ac-G IAAIEQK counted
T2 construct: from tissue; host or cells: bovine pancreas
Protocol: as §1

[8] = CD thermal unfolding; format: physicochemical; conditions: apo, 10 μM, 10 mM HEPES pH 7.0, CD 222 nm
Protocol: 2 (A) CD spectra of 0.1 μM and (B) 10 μM KH2-20X and MB1-2 trimers in the absence (apo; KH2-20X, orange; MB1-2, blue) and presence (holo; KH2-20X + TbCl3, red; MB1-2 + TbCl3, turquoise) of 1.0 equiv of TbCl3, recorded at 293 K. (C) CD thermal unfolding profiles of 10 μM trimers monitoring the molar ellipticity at 222 nm: apo MB1-2 (blue), Tb(MB1-2)3 (turquoise), apo KH2-20X (orange), and Tb(KH2-20X) (red). Solid lines indicate forward heating, and dotted lines indicate reverse cooling. All experiments were conducted in HEPES buffer at pH 7.0, with buffer concentrations adjusted to match peptide concentration (0.1 and 10.0 mM for 0.1 and 10.0 μM peptide, respectively). […]
10 µM peptide in 10 mM HEPES, 0.1 mM TbCl₃ into 1 µM peptide in 1 mM HEPES, and 0.01 mM TbCl₃ into 0.1 µM peptide in 0.1 mM HEPES (all at pH 7.0). […] The observed ellipticity was then converted into molar ellipticity, where the helical content was calculated as the percentage folded, based on the theoretical maximum ellipticity at 222 nm as reported by Scholtz et al.9 Thermal unfolding data was recorded by monitoring the ellipticity at 222 nm of a 10 μM trimer concentration of MB1-2 and KH2-20X solution in 10 mM HEPES buffer (pH 7.0) in the absence and presence of 10 μM TbCl3, using a Jasco Peltier Type MPTC-513 temperature controller ramping from 20 °C to 85 °C in 0.1°C increments, heating at 1 °C/min. […]

[9] = Zn(II)/phosphate challenge, relaxivity, 2.5 mM complex and 2.5 mM Zn(II); ref Laurent et al.; cited from earlier work
From the text: The stability of MRI contrast agents is often benchmarked by the “ratio index”, defined as the time for the relaxation value to drop to 80% of its initial value under Zn(II)/phosphate challenge. […] Laurent et al. monitored complex integrity using relaxivity under equimolar condi ...

With “Ac-G IAAIEQK IAANEWK DAAIXQK IAAIEQK IAAIEQK G-NH2 [Tb(KH2-20X)]” the cleaved bond [1] was “Lys-G, major; also recorded: Lys-I”.

In the case of O=C([O-])CN1CCN(CC(=O)[O-])CCN(CC(=O)[O-])CCN(CC(=O)[O-])CC1.[Gd+3] [Gd-DOTA], the “r 1 relaxivity at 1.5 T” value [2] is listed as 4.3 mM^–1 s^–1 and the “r 2 relaxivity at 1.5 T” value [2] is listed as 5.7 mM^–1 s^–1.

In the case of “I: Ac-GIAAIEQKIAANEWKDAAIEQKIAAIEQKIAAIEQKG-NH2 / II: Ac-GIAAIEQKIAANEWKDAAIEQKIAAIEQKIAAIEQKG-NH2 / III: Ac-GIAAIEQKIAANEWKDAAIEQKIAAIEQKIAAIEQKG-NH2 (amide I:15-II:20, I:20-III:15, II:15-III:20) [KH2-20X]”, the “% apo folding (10.0 μM trimer)” value [3] is reported as 96 ± 3%, the “% metalation by native mass spectrometry” value [4] is reported as 95–100% and the “rate of Tb(III) binding (sensitized emission 545 nm)” value [5] is reported as “rapid across all tested concentrations”. For the same compound, the “abundance of trimeric cross-linked IAANEWK DAAIEQK fragment at 30 min, apo” value [6] was 5%, the “abundance of trimeric cross-linked IAANEWK DAAIEQK fragment at 6 h, apo” value [6] was 20% and the remaining at 0.5 h ([7]; read-out: % remaining intact as trimers after 30 min trypsin, apo) was roughly 74%. The remaining at 6 h ([7]; read-out: % remaining intact as trimers after 6 h trypsin, apo) was roughly 45% and the “folding over the temperature range 20-85 °C” value [8] was “remain well-folded throughout the entire temperature range”.

In the case of CNC[C@H](O)[C@@H](O)[C@H](O)[C@H](O)CO.CNC[C@H](O)[C@@H](O)[C@H](O)[C@H](O)CO.O=C([O-])CN(CCN(CC(=O)[O-])CC(=O)O)CCN(CC(=O)[O-])CC(=O)O.[Gd+3] [Magnevist], the “ratio index (time for relaxation value to drop to 80% of initial value)” value [9] is listed as roughly 250 min.

For “Ac-G IAAIEQK IAANEWK DAAIEQK IAAIEQK IAAIEQK G-NH2 [Tb(MB1-2)3]”, the cleaved bond [1] was “Lys-G, major”.

With “Ac-G IAAIEQK IAANEWK DAAIXQK IAAIEQK IAAIEQK G-NH2 [KH2-20X]” the cleaved bond [1] was “Lys-G, major, 30 min; also recorded: Lys-I, 30 min”, the fragment found [1] was “trimeric cross-linked IAANEWK DAAIEQK (peak 5), 30 min” and the not cleaved [1] was “uncleaved IAANEWK DAAIEQK stretch; individual IAANEWK and DAAIEQK fragments absent”.

For CNC[C@H](O)[C@@H](O)[C@H](O)[C@H](O)CO.O=C([O-])CN1CCN(CC(=O)[O-])CCN(CC(=O)O)CCN(CC(=O)[O-])CC1.[Gd+3] [Dotarem], the “ratio index (time for relaxation value to drop to 80% of initial value)” value [9] is given as “exceeds 5000 min”.

In the case of “Ac-G IAAIEQK IAANEWK DAAIEQK IAAIEQK IAAIEQK G-NH2 [MB1-2]”, the cleaved bond [1] is reported as “Lys-I, within 30 min; also recorded: Lys15-D, within 30 min; also recorded: Lys-G, within 30 min”.
